Assays:
[1] = system: premalignant and malignant human cutaneous keratinocytes; settings: cytostasis was followed by apoptosis; cited from earlier work
HaCaT cells = test: Proliferation assay (HaCaT cells, ATP-lite bioluminescent readout of intracellular ATP); type: cell-based; settings: Homo sapiens, 144 h, absolute IC50 of inhibition of proliferation, 10% FBS, 6 days incubation, mean of 3 experiments
Description: Human adult low calcium high temperature (HaCaT) cells are spontaneously transformed human keratinocytes that have the characteristics of basal epidermal keratinocytes (Boukamp et at. J Cell Biol 106:761-771, 1988) This line can be used as in vitro model for highly proliferative epidermis (Ockenfels et at., Arch Dermatol Res 287:301-309, 1995)
HaCaT cells exponentially growing were plated in clear bottom, white walled, 96-well plates at a density of 5000 cells/well in 100 µL Dulbecco's modified Eagle's medium (DMEM) containing 1% fetal bovine serum (FBS), and incubated overnight at 37 °C, 5% CO2. Next day, media in each well was replaced with 50 µL growth medium containing 10% FBS. 50 µL of compounds at two-fold the desired concentration in growth medium containing 2% dimethyl sulfoxide (DMSO) were added to the wells. Six wells were replaced with fresh 100 µL of medium containing 1% FBS and 1% DMSO and were used as a control of no proliferation. Six other wells were replaced with fresh 100 µL of medium containing 10% FBS and 1% DMSO and were used as a control of top proliferation. Each compound concentration was tested in triplicate and ranged from 100 µM to 0.4 µM in half-log serial dilutions. Plates were incubated at 37°C 5% CO2 for 6 consecutive days. […] Results were expressed as a % of inhibition of proliferation in relation to the top and bottom proliferation wells. […]

Structure (SMILES)	effect on premalignant and malignant human cutaneous keratinocytes [1]	IC50 (HaCaT cells)
CC(O)=C(C#N)C(=O)Nc1ccc(C(F)(F)F)cc1 [Teriflunomide, 2-Butenamide, 2-cyano-3-hydroxy-N-[4-(trifluoromethyl)phenyl]-]	dose- and time-dependent cytostasis	–
COc1cccc(-c2cc(F)c(Nc3ncccc3C(=O)O)c(F)c2)c1 [2-(3,5-difluoro-3'-methoxybiphenyl-4-ylamino)nicotinic acid]	–	580 nM
O=C(O)c1cc(C2CC2)ccc1Nc1cnc(-c2c(F)cccc2F)nc1 [5-cyclopropyl-2-(2-(2,6-difluorophenyl)pyrimidin-5-ylamino)benzoic acid]	–	260 nM

Reference: patent EP2444088A1, “Amino derivatives for the treatment of proliferative skin disorders” (Almirall, S.A., priority 2010, dated 2012)
